Test results from patent US20260272933A1, “USE OF HETEROCYCLIC COMPOUND IN TREATMENT OF INTERSTITIAL PNEUMONIA” (SUZHOU KINTOR PHARMACEUTICALS, INC., priority 2023, published 2026).
Entries after “also recorded” stand apart in the source; their conditions may differ.

How the values were obtained:
GLi1 = assay: Western blot: degradation of TGF-β-induced GLi1 protein in A549 cells; type: cell-based, Human; conditions: 24-hour treatment, FIG. 43
Description: (§1) Human lung carcinoma cells (A549 cell line) were purchased from Shanghai Cell Bank of Chinese Academy of Sciences.
(§2) The cells were cultured in RPMI (Roswell Park Memorial Institute)-1640 medium supplemented with 10% FBS (Fetal Bovine Serum) and 1% penicillin-streptomycin. The cell culture conditions were 5% CO2 and […] Upon reaching approximately 80% confluence, the cells were subcultured at a 1:3 ratio.
(§3) A549 cells in the exponential growth phase were digested and plated into 6-well plates at 1×10^6 cells per well. After one day of growth, TGF-β (transforming growth factor-β) and different concentrations of compound B-1-1 were added to culture the cells. Protein was extracted 24 hours after drug treatment.
(§4) After removing the culture medium from the 6-well plates, the cells were washed once with PBS (phosphate-buffered saline) and then trypsinized. The cells were collected in 1.5 mL microcentrifuge tubes by centrifugation. […]
(§5) The protein concentration was determined using a BCA Protein Assay Kit. […] After thoroughly mixing, the plate was incubated at 60° C. for 10 min, and the absorbance was measured at 562 nm. Record the readings and plot a standard curve based on the standard concentration gradient. The protein concentration of the samples was calculated by substituting the sample absorbance values into the standard curve. […]

GLi2 = assay: Western blot: degradation of TGF-β-induced GLi2 protein in A549 cells; type: cell-based, Human; conditions: 24-hour treatment, FIG. 43
Description: as §1, §2, §3, §4, §5

α-SMA = assay: Western blot: degradation of TGF-β-induced α-SMA protein in A549 cells; type: cell-based, Human; conditions: 24-hour treatment, FIG. 43
Description: as §1, §2, §3, §4, §5

[1] = test system: Bleomycin-induced unilateral pulmonary fibrosis model in SD rats; assay: Bleomycin-induced unilateral pulmonary fibrosis model, HE staining injury and inflammation score of terminal bronchioles and small pulmonary arteries; type: in vivo; conditions: for Injury Score of Terminal Bronchioles and Accompanying Small Pulmonary Arteries, At Margin Lesion / Injury Score of Terminal Bronchioles and Accompanying Small Pulmonary Arteries, Within Lesion: p.o., 28 days from Day 8, Mean ± SEM, p < 0.001 vs. Model group; for Injury Score of Terminal Bronchioles and Accompanying Small Pulmonary Arteries, At Margin Lesion: model group 5.44 ± 0.12; for Injury Score of Terminal Bronchioles and Accompanying Small Pulmonary Arteries, Within Lesion: model group 9.44 ± 0.22
Excerpt: (§6) 55 SD rats were purchased from Zhejiang Charles River Laboratory Animal Technology Co., Ltd. and housed in the SPF-grade barrier system of KCl Biotechnology (Suzhou) Co., Ltd. The animal use certification number was SYXK (Su) 2017-0041, the temperature, humidity and light control system follows international standards.
(§7) Anesthesia: 1-2.5% isoflurane was used for respiratory anesthesia to maintain deep anesthesia of the animals.
(§8) After the rats were under surgical anesthesia, the experimental model was constructed according to the guidelines for establishing the unilateral pulmonary fibrosis model in KCl. The skin was shaved, locally disinfected, and then a layered incision was made to expose and preserve the trachea. Bleomycin (dose: 3 mg/kg) was administered via intratracheal instillation to induce left lung fibrosis. After confirming no bleeding, the incision was closed layer-by-layer using 2-0 silk surgical sutures. After the surgery, the animals were placed on a 37° C. electric heating pad until fully recovered. Normal feeding and drinking were confirmed before returning the animals to standard housing. Starting from the day of modeling, meloxicam (1 mg/kg) was administered subcutaneously once daily for three consecutive days for postoperative analgesia.
(§9) Prior to modeling, animals were randomly divided into five groups based on body weight, as follows: Sham model group (normal group) (n=10), model group (n=10), Nintedanib 100 mg/kg, qd group (n=10), Compound B-1-1 20 mg/kg, bid group (n=10), Compound B-1-1 40 mg/kg, bid group (n=10). The administration began on the 8th day after modeling. • Nintedanib: administered orally, once daily for 28 consecutive days; • Compound B-1-1: administered orally, twice daily for 28 consecutive days.
(§10) After euthanasia, animals were perfused systemically with pre-cooled PBS at 4° C. The lungs were collected, and the left lung lobes were perfused with formalin. Histopathological examinations were performed using HE staining and Masson Trichrome staining. HE staining was used to evaluate the extent of bronchial and small pulmonary artery injury and inflammation, while Masson Trichrome staining assessed the degree of pulmonary fibrosis.
(§11) The entire left lung was dehydrated and embedded in paraffin. Paraffin sections of the entire left lung were prepared at a thickness of 3 μm. HE-stained sections were used for pathological analysis and scoring of injury and inflammatory changes in terminal bronchioles and accompanying small pulmonary arteries within and surrounding the lesion (Tables 4-2 and 4-3). Masson Trichrome staining was performed on the left lung paraffin sections, and the stained sections were scanned using the Nano Zoomer Digital Pathology scanner (S210) to obtain whole-slide images. Ten areas of 1 mm^2 each were randomly selected within the lesion area, and semi-quantitative scoring was conducted under a double-blind condition according to the Ashcroft scoring system (Table 4-4).
(§12) Statistical analysis was performed using Prism 6.0 software. Data are expressed as mean±SEM (standard error). One-way ANOVA was used for the analysis, and Tukey's method was selected for the comparison of differences between groups; when comparing between two groups, a T-test was used for two-tailed detection; when p<0.05, there was a significant difference between the two groups. In cases where outliers were suspected due to large within-group variability, the Identify Outliers function in GraphPad Prism 6.0 was used to detect and exclude outlier values. For data analysis purposes, all relevant data from any animal excluded from the efficacy evaluation were also omitted from statistical analysis.

[2] = test system: Bleomycin-induced unilateral pulmonary fibrosis model in SD rats; assay: Bleomycin-induced unilateral pulmonary fibrosis model, Masson Trichrome staining, Ashcroft fibrosis score of left lung; type: in vivo; conditions: for Fibrosis Score (Ashcroft), left lung: p.o., 28 days from Day 8, model group 3.79 ± 0.08, p < 0.001 vs. Model group
Excerpt: as §6, §7, §8, §9, §10, §11, §12

[3] = Body weight and clinical observations during the rat pulmonary fibrosis study; type: in vivo, SD rats; conditions: Group 5, 40 mg/kg, after administration, FIGS. 44 and 45
Excerpt: as §6
as §8, with “analgesia. […]” for “analgesia.”

[4] = both doses, 20 mg/kg and 40 mg/kg, twice daily from Day 8, p<0.001
[5] = 100 mg/kg, once daily from Day 8, p<0.001

| Structure (SMILES) | degradation of TGF-β-induced GLi1 protein (Western blot) (GLi1) | degradation of TGF-β-induced GLi2 protein (Western blot) (GLi2) | degradation of TGF-β-induced α-SMA protein (Western blot) (α-SMA) | Injury Score of Terminal Bronchioles and Accompanying Small Pulmonary Arteries, At Margin Lesion ([1]; 20 mg/kg, b.i.d.) | Injury Score of Terminal Bronchioles and Accompanying Small Pulmonary Arteries, Within Lesion ([1]; 20 mg/kg, b.i.d.) | Injury Score of Terminal Bronchioles and Accompanying Small Pulmonary Arteries, At Margin Lesion ([1]; 40 mg/kg, b.i.d.) | Injury Score of Terminal Bronchioles and Accompanying Small Pulmonary Arteries, Within Lesion ([1]; 40 mg/kg, b.i.d.) | inflammatory infiltration and pathological injury in terminal bronchioles and small pulmonary arteries within and at the margins of fibrotic lesions, compared to model group (in words) [1, 4] | Fibrosis Score (Ashcroft), left lung ([2]; 20 mg/kg, b.i.d.) | effect in inhibiting the progression of pulmonary fibrosis lesions compared with positive drug nintedanib ([2]; 40 mg/kg, BID, versus nintedanib 100 mg/kg, QD) | Fibrosis Score (Ashcroft), left lung ([2]; 40 mg/kg, b.i.d.) | pulmonary fibrosis scores / progression compared to the model group (in words) [2, 4] | body weight gain compared with the model group [3] | inflammatory cell infiltration and injury in terminal bronchioles and small pulmonary arteries within and surrounding fibrotic lesions, compared to model group (in words) [1, 5] | Injury Score of Terminal Bronchioles and Accompanying Small Pulmonary Arteries, At Margin Lesion ([1]; 100 mg/kg, q.d.) | Injury Score of Terminal Bronchioles and Accompanying Small Pulmonary Arteries, Within Lesion ([1]; 100 mg/kg, q.d.) | pulmonary fibrosis compared to the model group (in words) [2, 5] | Fibrosis Score (Ashcroft), left lung ([2]; 100 mg/kg, q.d.) |
| --- | --- | --- | --- | --- | --- | --- | --- | --- | --- | --- | --- | --- | --- | --- | --- | --- | --- | --- |
| Cc1cnc(-c2cc(N3CCc4nc(N5CCC(O)CC5)ncc4[C@H]3C)ncc2Cl)c(C)c1 [Compound B-1-1] | effectively degraded | effectively degraded | effectively degraded | 3.50 ± 0.43 | 6.96 ± 0.46 | 3.14 ± 0.35 | 6.20 ± 0.47 | significantly decreased; also recorded: significantly improved | 2.93 ± 0.20 | same excellent effect | 2.62 ± 0.18 | significantly reduced; also recorded: significantly inhibit | slower rate of weight gain | – | – | – | – | – |
| COC(=O)c1ccc2c(c1)NC(=O)/C2=C(\Nc1ccc(N(C)C(=O)CN2CCN(C)CC2)cc1)c1ccccc1 [Nintedanib, nintedanib, reference compound] | – | – | – | – | – | – | – | – | – | – | – | – | – | significantly reduced; also recorded: amelioration | 2.72 ± 0.17 | 6.24 ± 0.21 | significantly ameliorated; also recorded: significantly improved | 2.57 ± 0.09 |
